Measurements from patent US5665765A, “5,6,7,8-tetrahydronaphtho[2,3-b]furan and indano[5,6-b]furan amine compounds” (Adir et Compagnie, priority 1995, dated 1997).

target: T1, human dopamine D3 receptor (Homo sapiens, UniProt P35462); experiment: binding to human D3 receptors expressed in CHO cells ([125I]-iodosulpride); conditions: not given
T1 construct: expressed in transfected cells; membranes
Protocol: (§1) STUDY OF THE BINDING OF THE COMPOUNDS OF THE INVENTION TO HUMAN D2 AND D3 RECEPTORS EXPRESSED IN CHO CELLS
(§2) CHO (Chinese Hamster Ovary) cells were transfected in a stable manner by the gene coding for the human dopamine D2 or D3 receptor according to methods known from the literature. The native cells are deficient in the enzyme DHFR (DiHydroFolate Reductase). Those cells are cultured in a vessel at 37° C. in a humid atmosphere of 5% CO2 : 95% air. The transfections were carried out using Lipofectine (Gibco). The CHO cells, cotransfected with the human D2 receptor and the gene for resistance to phleomycin, were selected for their resistance to the presence of that antibiotic in the culture medium. The cells transfected with the human D3 receptor were selected in a medium lacking in hypoxanthine/thymidine, in the presence of methotrexate. The compositions of the culture media used are, for CHO--D2 : DMEM (Dulbecco's Modified Eagle Medium) supplemented with 10% foetal calf serum and hypoxanthine/thymidine and, for CHO--D3 : DMEM supplemented with 10% dialysed foetal calf serum. The confluent cells are harvested and the membranes are then prepared.
After a few minutes in the presence of 0.2% trypsin, the cells are recovered and centrifuged at 2000 g for 5 minutes. The cell mass, resuspended in […] tris-HCl buffer, pH 7.5, containing 5 mM MgSO4, is then […] over Polytron®. The homogenate is then centrifuged at 50 000 g for 15 minutes, and the mass is resuspended by gentle sonication in an incubation buffer of the following composition: 50 mM tris-HCl, pH 7.5, containing 120 mM NaCl, 5 mM KCl, 2 mM CaCl2 and 5 mM MgCl2. The membranes are then divided into aliquots and preserved at -80° C. until the day of the experiment.
The incubation is carried out in polypropylene tubes at a final volume of 400 μl containing:
100 μl of [^125 I]-iodosulpride (Amersham) at 0.1 and 0.2 nM for the D2 and D3 receptors respectively.
100 μl of buffer (total tubes)
100 μl of raclopride 10 μM (non-specific binding)
200 μl of membrane preparation containing the D2 or D3 receptors, in a buffer to which
0.2% BSA (bovine serum albumin) has been added.
(§3) The ranges of concentration of each compound include at least 7 points determined in triplicate; each experiment is repeated at least twice.
The incubation, which lasts 30 minutes at 30° C., is terminated by rapid filtration in a Brandle apparatus, followed by three consecutive washes with tris-HCl buffer, pH 7.4, containing 120 m M NaCl. The filters recovered are then counted with a gamma counter.
The IC50, which represents the concentration that gives a 50% inhibition of the binding of the radioligand, is calculated by non-linear regression (Prism Graph method). The Ki value is derived from the formula Ki=IC50 (1+L/Kd) where L is the concentration of [^125 I]-iodosulpride used in the experiment and Kd its dissociation constant. The results are expressed in the form of pKi (pKi=-logKi).

T1 sequence (P35462 whole entry): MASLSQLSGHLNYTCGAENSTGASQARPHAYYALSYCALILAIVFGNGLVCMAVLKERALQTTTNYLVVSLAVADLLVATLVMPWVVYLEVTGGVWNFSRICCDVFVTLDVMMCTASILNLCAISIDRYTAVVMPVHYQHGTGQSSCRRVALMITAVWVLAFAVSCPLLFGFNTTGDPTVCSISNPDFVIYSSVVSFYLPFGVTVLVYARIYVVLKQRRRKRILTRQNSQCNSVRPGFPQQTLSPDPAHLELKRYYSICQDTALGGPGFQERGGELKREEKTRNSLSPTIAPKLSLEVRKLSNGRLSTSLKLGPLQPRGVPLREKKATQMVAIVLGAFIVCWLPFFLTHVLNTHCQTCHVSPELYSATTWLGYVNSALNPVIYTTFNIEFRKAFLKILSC

| Compound | Ki |
| --- | --- |
| CCCN[C@@H]1CCc2c(OC)cccc2[C@@H]1C [AJ 76, [cis(+)-1S,2R]-5-methoxy-1-methyl-2-n-propylaminotetralin] | 69.2 nM |

same assay, conditions: [125I]-iodosulpride 0.2 nM, CHO cell membranes, 30 min at 30° C.; pKi=-logKi; read-out: pKi (human D3) (converted)

| Compound | Ki |
| --- | --- |
| NC1CCc2cc3c(cc2C1)OCC3 (stereo not drawn) | 158 nM |
| NC1CCc2cc3ccoc3cc2C1 (stereo not drawn) | 389 nM |
| CCOCCNC1CCc2cc3c(cc2C1)OCC3 (stereo not drawn) | 759 nM |
| FC(F)(F)CNC1CCc2cc3c(cc2C1)OCC3 (stereo not drawn) | 10000 nM |
| CN(C)C1CCc2cc3c(cc2C1)OCC3 (stereo not drawn) | 209 nM |
| CN(CC1CCCCC1)C1CCc2cc3c(cc2C1)OCC3 (stereo not drawn) | 151 nM |
| c1ccc(CNC2CCc3cc4c(cc3C2)OCC4)cc1 (stereo not drawn) | 1170 nM |
| CCCN(CCc1ccc(O)cc1)C1CCc2cc3c(cc2C1)OCC3 (racemic) [Example 3, (7RS)-7-{N-[2-(4-hydroxyphenyl)ethyl]-N-propylamino}-5,6,7,8-tetrahydronaphtho[2,3-b]2,3-dihydrofuran] | 2.24 nM |
| CCCN(CCc1ccc2c(c1)CC(=O)N2)C1CCc2cc3c(cc2C1)OCC3 (racemic) [Example 6, (7RS)-7-{N-[2-((3H)-indol-2-on-5-yl)ethyl]-N-propylamino}-5,6,7,8-tetrahydronaphtho[2,3-b]2,3-dihydrofuran] | 1.15 nM |
| CCCN(CCCc1ccc2c(c1)CC(=O)N2)C1CCc2cc3c(cc2C1)OCC3 (racemic) [Example 7, (7RS)-7-{N-[3-((3H)-indol-2-on-5-yl)propyl]-N-propylamino}-5,6,7,8-tetrahydronaphtho[2,3-b]2,3-dihydrofuran] | 3.47 nM |
| CCCN(CCCc1ccc(NC(C)=O)cc1)C1CCc2cc3c(cc2C1)OCC3 (racemic) [Example 13] | 3.55 nM |

same assay, conditions: human D3 vs D2 binding

| Compound | selectivity for the D3 receptor compared with the D2 receptor |
| --- | --- |
| CCCN[C@@H]1CCc2c(OC)cccc2[C@@H]1C [AJ 76, [cis(+)-1S,2R]-5-methoxy-1-methyl-2-n-propylaminotetralin] | 2 |

same assay, conditions: radioligand dissociation constant used in Ki formula

| Compound | Kd |
| --- | --- |
| [^125 I]-iodosulpride | 1.31 nM |

target: T2, human dopamine D2 receptor (Homo sapiens, UniProt P14416); experiment: binding to human D2 receptors expressed in CHO cells ([125I]-iodosulpride); conditions: radioligand dissociation constant used in Ki formula
T2 construct: expressed in transfected cells; membranes
Protocol: as §1
as §2, with “The compositions of the culture media used are, for CHO--D2 : DMEM (Dulbecco's Modified Eagle Medium) supplemented with 10% foetal calf serum and hypoxanthine/thymidine and, for CHO--D3 : DMEM supplemented with 10% dialysed foetal calf serum. The confluent cells are harvested and the membranes are then prepared.” left out
as §3
The incubation, which lasts 30 minutes at 30° C., is terminated by rapid filtration in a Brandle apparatus, followed by three consecutive washes with tris-HCl buffer, pH 7.4, containing 120 m M NaCl. The filters recovered are then counted with a gamma counter. […]

T2 sequence (P14416 whole entry): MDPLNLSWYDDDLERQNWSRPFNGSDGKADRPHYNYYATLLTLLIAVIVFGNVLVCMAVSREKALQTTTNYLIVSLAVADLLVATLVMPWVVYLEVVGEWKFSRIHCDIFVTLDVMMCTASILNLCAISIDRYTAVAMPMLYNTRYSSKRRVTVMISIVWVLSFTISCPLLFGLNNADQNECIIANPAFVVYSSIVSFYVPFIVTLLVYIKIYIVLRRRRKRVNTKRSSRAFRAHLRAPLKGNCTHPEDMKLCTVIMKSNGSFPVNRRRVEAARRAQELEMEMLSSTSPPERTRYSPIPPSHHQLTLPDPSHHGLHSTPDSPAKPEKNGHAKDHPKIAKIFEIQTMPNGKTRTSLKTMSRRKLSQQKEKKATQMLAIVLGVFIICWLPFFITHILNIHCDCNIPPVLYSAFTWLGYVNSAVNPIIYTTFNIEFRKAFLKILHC

| Compound | Kd |
| --- | --- |
| [^125 I]-iodosulpride | 0.5 nM |
